Read-outs that look alike come from different tables or passages of the source.
How the values were obtained:
[1] = biological target: T1, aromatase (microsomes from the human placenta) (Homo sapiens, UniProt P11511); assay: Aromatase inhibition in vitro, tritiated water method, human placenta microsomes; type: biochemical
T1 construct: using microsomes from the human placenta as source of the enzyme; from tissue; host or cells: human placenta microsomes
T1 sequence (P11511 1-503): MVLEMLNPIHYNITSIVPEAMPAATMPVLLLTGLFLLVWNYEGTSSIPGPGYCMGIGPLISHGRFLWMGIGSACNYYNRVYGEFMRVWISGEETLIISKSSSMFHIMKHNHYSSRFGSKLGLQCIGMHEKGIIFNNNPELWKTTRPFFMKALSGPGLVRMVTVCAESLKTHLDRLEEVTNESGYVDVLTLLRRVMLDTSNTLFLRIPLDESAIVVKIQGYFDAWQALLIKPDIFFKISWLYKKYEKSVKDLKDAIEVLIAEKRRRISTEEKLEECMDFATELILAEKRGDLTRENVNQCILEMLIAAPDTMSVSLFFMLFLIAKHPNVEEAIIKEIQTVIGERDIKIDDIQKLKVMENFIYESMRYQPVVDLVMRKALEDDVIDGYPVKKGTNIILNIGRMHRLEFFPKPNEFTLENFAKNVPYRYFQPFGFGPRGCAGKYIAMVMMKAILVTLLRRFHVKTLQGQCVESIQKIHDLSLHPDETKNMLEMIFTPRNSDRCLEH

[2] = tested on: uterine hypertrophy induced by androstenedione; assay: Activity in vivo: inhibition of uterine hypertrophy induced by androstenedione; set-up: species or system rat (Sprague-Dawley); conditions: Rattus norvegicus, 96 h, immature female rats, androstenedione 30 mg/kg for 4 days, read-out: % inhibition to doses (μg/Kg); for inhibition in vivo at 0.001 mg/kg: dose 1 μg/Kg; for inhibition in vivo at 0.01 mg/kg: dose 10 μg/Kg; for inhibition in vivo at 0.1 mg/kg: dose 100 μg/Kg; for inhibition in vivo at 0.003 mg/kg: dose 3 μg/Kg; for inhibition in vivo at 1 mg/kg: dose 1000 μg/Kg
Procedure: The activity in vivo of aromatase inhibition by compounds of formula (I) according to the invention has been tested according to the model established by Bharnagar et al. (1990).
In general, immature female rats of the Sprague-Dawley line of a weight ranging from 40 to 50 g have been treated with a dose of androstenedione at 30 mg/kg for 4 days, in the absence or in the presence of doses of various compounds of formula (I).
Four hours after administration of an aromatase inhibitor, the rats were sacrificed. Their uteruses were removed, cleared of adhering fat and conjunctive tissue, next the uteruses were weighed (wet weight). The dry weight of the uteruses was determined the following day after a step of drying for one night at 80° C.

[3] = biological target: aromatase (e) (UniProt O46512); type: biochemical; conditions: value marked (e); read-out: Activity In vitro IC50(nM), (e)
aromatase (e), sequence (O46512 whole entry): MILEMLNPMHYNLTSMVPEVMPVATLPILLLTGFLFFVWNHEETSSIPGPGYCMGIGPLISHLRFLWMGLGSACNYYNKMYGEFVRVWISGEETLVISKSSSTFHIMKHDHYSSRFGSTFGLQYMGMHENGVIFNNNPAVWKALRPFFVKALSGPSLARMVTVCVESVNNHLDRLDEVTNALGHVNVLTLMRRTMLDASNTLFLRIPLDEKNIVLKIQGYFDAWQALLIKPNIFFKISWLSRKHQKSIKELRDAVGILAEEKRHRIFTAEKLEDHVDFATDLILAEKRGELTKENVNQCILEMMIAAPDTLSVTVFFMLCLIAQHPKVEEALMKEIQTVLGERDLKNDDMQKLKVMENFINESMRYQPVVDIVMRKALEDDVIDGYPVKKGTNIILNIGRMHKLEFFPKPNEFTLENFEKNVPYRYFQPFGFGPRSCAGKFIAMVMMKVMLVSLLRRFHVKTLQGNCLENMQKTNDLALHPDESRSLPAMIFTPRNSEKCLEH

[4] = value without (h)/(e) mark, read-out: Activity In vitro IC50
[5] = value marked (h), read-out: Activity In vitro IC50(nM), (h)

Molecule | IC50 [1, 4] [nM] | inhibition in vivo at 0.01 mg/kg [2] [%] | other results
N#Cc1ccc(C(c2ccc3[nH]c(=O)sc3c2)n2ccnc2)cc1 (stereo not drawn) [PC11215] | 4.04 | 56 | inhibition in vivo at 0.001 mg/kg [2]: 0%; inhibition in vivo at 0.1 mg/kg [2]: 90%
Cn1c(=O)oc2ccc(C(c3ccccc3)n3ccnc3)cc21 (stereo not drawn) [PCH31, 3-Methyl-5-[1H-imidazol-1-yl-(phenyl)methyl]-1,3-benzoxazol-2(3H)-one] |  |  | IC50 [1, 5]: 46.6 nM; IC50 [3]: 50.1 nM
Cn1c(=O)sc2cc(C(c3ccccc3)n3ccnc3)ccc21 (racemic) [(E1)PCH28] |  |  | IC50 [3]: 24.9 nM
N#Cc1ccc(C(c2ccc(C#N)cc2)n2cncn2)cc1 [Letrozole, reference compound] |  | 90 | inhibition in vivo at 0.001 mg/kg [2]: 66%; inhibition in vivo at 0.003 mg/kg [2]: 74%; inhibition in vivo at 0.005 mg/kg ([2]; dose 5 μg/Kg): 91%
O=c1[nH]c2ccc(C(c3ccccc3)n3ccnc3)cc2s1 (stereo not drawn) [PCH100, 6-[1H-Imidazol-1-yl(phenyl)methyl]-1,3-benzothiazol-2(3H)-one] |  |  | IC50 [1, 5]: 33.7 nM; IC50 [3]: 34 nM
5-[(4-Cyanophenyl)(1H-1,2,4-triazol-1-yl)methyl]-6-methoxy-1,3-benzoxazol-2(3H)-one [GCA37] | 328 |  | 
Cn1c(=O)sc2cc(C(c3ccccc3)n3ccnc3)ccc21 (racemic) [(E2) PCH28] |  |  | IC50 [3]: 22.6 nM
Cn1c(=O)oc2cc(C(c3ccccc3)n3ccnc3)ccc21 (stereo not drawn) [AL22, 6-[1H-Imidazol-1-yl(phenyl)methyl]-3-methyl-1,3-benzoxazol-2(3H)-one] |  |  | IC50 [1, 5]: 320 nM; IC50 [3]: 340 nM
N#Cc1ccc(C(c2ccc3oc(=O)[nH]c3c2)n2ccnc2)cc1 (stereo not drawn) [PC11128] | 5.83 | 29 | inhibition in vivo at 0.001 mg/kg [2]: 29%; inhibition in vivo at 0.1 mg/kg [2]: 53%
CN1C(=O)COc2cc(C(c3ccccc3)n3ccnc3)ccc21 (stereo not drawn) [PCH19, 4-Methyl-7-[1H-imidazol-1-yl(phenyl)methyl]-1,4-benzoxazin-3(4H)-one] |  |  | IC50 [1, 5]: 52.5 nM; IC50 [3]: 59.9 nM
Cn1c(=O)oc2cc(C(c3ccc(Cl)cc3)n3ccnc3)ccc21 (stereo not drawn) [PCH15, 6-[(4-Chlorophenyl)(1H-imidazol-1-yl)methyl]-3-methyl-1,3-benzoxazol-2(3H)-one] |  |  | IC50 [1, 5]: > 2000 nM
Cn1c(=O)oc2cc(C(c3ccccc3)n3cncn3)ccc21 (stereo not drawn) [PCH20, 3-Methyl-6-[phenyl(1H-1,2,4-triazol-1-yl)methyl]-1,3-benzoxazol-2(3H)-one] |  |  | IC50 [1, 5]: > 3000 nM
Cn1c(=O)sc2cc(C(c3ccc(C#N)cc3)n3ccnc3)ccc21 (racemic) [PCH165 (+)CD4] | 8.81 |  | 
Cn1c(=O)oc2cc(C(c3ccccc3)n3cnnc3)ccc21 (stereo not drawn) |  |  | IC50 [1, 5]: > 3000 nM
Cn1c(=O)sc2cc(C(c3ccc(C#N)cc3)n3ccnc3)ccc21 (racemic) [PCH165 (−)CD4] | 4.94 |  | 
CN1C(=O)COc2ccc(C(c3ccc(C#N)cc3)n3cncn3)cc21 (stereo not drawn) [PCH223] |  | 22 | inhibition in vivo at 0.001 mg/kg [2]: 4%; inhibition in vivo at 0.1 mg/kg [2]: 66%
O=c1[nH]c2cc(C(c3ccncc3)n3ccnc3)ccc2o1 (stereo not drawn) [PC11129] | 26.8 |  | 
Cn1c(=O)sc2cc(C(c3ccc(C#N)cc3)n3ccnc3)ccc21 (racemic) [PCH165 (+/−) CD4] | 4.54 | 23 | inhibition in vivo at 0.001 mg/kg [2]: 22%; inhibition in vivo at 0.1 mg/kg [2]: 66%
Cn1c(=O)sc2cc(C(c3ccccc3)n3ccnc3)ccc21 (racemic) [(+/−)PCH28, 6-[1H-Imidazol-1-yl(phenyl)methyl]-3-methyl-1,3-benzothiazol-2(3H)-one] |  | 13 | IC50 [3]: 23.4 nM; inhibition in vivo at 0.1 mg/kg [2]: 25%; inhibition in vivo at 1 mg/kg [2]: 75%
COc1cc2oc(=O)[nH]c2cc1C(c1ccc(C#N)cc1)n1ccnc1 (stereo not drawn) [GCA36] | 19.9 |  | 

More lines, main results first:

IC50 [1, 4] [nM] | Molecule | inhibition in vivo at 0.01 mg/kg [2] [%] | other results
8.71 | Cn1c(=O)sc2cc(C(c3ccc(C#N)cc3)n3cncn3)ccc21 (stereo not drawn) [PCH158] | 56 | inhibition in vivo at 0.001 mg/kg [2]: 54%
24.9 | Cn1c(=O)oc2ccc(C(c3ccc(Cl)cc3)n3cncn3)cc21 (stereo not drawn) [PCH196] |  | 
1810 | Cn1c(=O)oc2ccc(C(c3ccccc3)n3cncn3)cc21 (stereo not drawn) [PCH183, 3-Methyl-5-[1H-1,2,4-triazol-1-yl(phenyl)methyl]-1,3-benzoxazol-2(3H)-one] |  | 
65.5 | O=C1COc2ccc(C(c3ccccc3)n3ccnc3)cc2N1 (stereo not drawn) [PCH218] |  | 
55.1 | O=C1CSc2cc(C(c3ccccc3)n3ccnc3)ccc2N1 (stereo not drawn) [PCH227, 7-[1H-Imidazol-1-yl(phenyl)methyl]-1,4-benzothiazin-3(4H)-one] |  | 
56.6 | CN1C(=O)CSc2cc(C(c3ccc(C#N)cc3)n3cncn3)ccc21 (stereo not drawn) [PCH231] |  | 
17.1 | O=c1[nH]c2cc(C(c3ccc(Cl)cc3)n3cncn3)ccc2o1 (stereo not drawn) [PCH195] |  | 
4.29 | CCn1c(=O)sc2cc(C(c3ccc(C#N)cc3)n3ccnc3)ccc21 (stereo not drawn) [PCH241] | 16 | inhibition in vivo at 0.001 mg/kg [2]: 18%; inhibition in vivo at 0.003 mg/kg [2]: 37%
3.05 | Cn1c(=O)sc2cc(C(c3ccc([N+](=O)[O-])cc3)n3cncn3)ccc21 (stereo not drawn) [PCH259] | 63 | inhibition in vivo at 0.001 mg/kg [2]: 31%; inhibition in vivo at 0.1 mg/kg [2]: 88%
5.38 | CN1C(=O)CSc2cc(C(c3ccc(C#N)cc3)n3ccnc3)ccc21 (stereo not drawn) [PCH240] |  | 
5.64 | CN1C(=O)COc2ccc(C(c3ccccc3)n3ccnc3)cc21 (stereo not drawn) [PCH213] | 3 | inhibition in vivo at 0.001 mg/kg [2]: 0%; inhibition in vivo at 0.1 mg/kg [2]: 5%
3.99 | CCn1c(=O)sc2cc(C(c3ccc([N+](=O)[O-])cc3)n3cncn3)ccc21 (stereo not drawn) [PCH243, 3-Ethyl-6-[(4-nitrophenyl)(1H-1,2,4-triazol-1-yl)methyl]-1,3-benzothiazol-2(3H)-one] |  | 
18.7 | Cn1c(=O)oc2ccc(C(c3ccc(Cl)cc3)n3cncn3)cc21 (stereo not drawn) [PCH160, 5-[(4-Chlorophenyl)(1H-1,2,4-triazol-1-yl)methyl]-3-methyl-1,3-benzoxazol-2(3H)-one] |  | 
4.49 | CCn1c(=O)sc2cc(C(c3ccc(C#N)cc3)n3cncn3)ccc21 (stereo not drawn) [PCH260] | 50 | inhibition in vivo at 0.001 mg/kg [2]: 32%; inhibition in vivo at 0.1 mg/kg [2]: 90%
179 | Cn1c(=O)sc2ccc(C(c3ccccc3)n3cncn3)cc21 (stereo not drawn) [PCH134] |  | 
31.7 | Cn1c(=O)sc2cc(C(c3cccc(C#N)c3)n3cncn3)ccc21 (stereo not drawn) [PCH258] |  | 
34.8 | N#Cc1ccc(C(c2ccc3c(c2)SCC(=O)N3)n2cncn2)cc1 (stereo not drawn) [PCH230] | 2 | inhibition in vivo at 0.1 mg/kg [2]: 22%; inhibition in vivo at 1 mg/kg [2]: 74%
11.8 | Cn1c(=O)sc2cc(C(c3ccc(C#N)cc3)n3cnnn3)ccc21 (stereo not drawn) [PCH248] |  | 
74.4 | O=C1COc2cc(C(c3ccccc3)n3ccnc3)ccc2N1 (stereo not drawn) [PCH211] |  | 
9.9 | N#Cc1ccc(C(c2ccc3c(c2)NC(=O)CO3)n2ccnc2)cc1 (stereo not drawn) [PCH225] |  | 
3.44 | CN1C(=O)COc2ccc(C(c3ccc(C#N)cc3)n3ccnc3)cc21 (stereo not drawn) [PCH222] | 32 | inhibition in vivo at 0.001 mg/kg [2]: 0%; inhibition in vivo at 0.003 mg/kg [2]: 22%
178 | O=c1[nH]c2cc(C(c3ccccc3)n3cncn3)ccc2s1 (stereo not drawn) [PCH132] |  | 
13.8 | N#Cc1ccc(C(c2ccc3c(c2)SCC(=O)N3)n2ccnc2)cc1 (stereo not drawn) [PCH229] | 11 | inhibition in vivo at 0.1 mg/kg [2]: 42%; inhibition in vivo at 1 mg/kg [2]: 83%
